In patent US6943191B1, “Disubstituted lavendustin A analogs and pharmaceutical composition comprising the analogs” (The United States of America as represented by the …, priority 1998, dated 2005):
Like-named read-outs stand apart in the source and are kept apart here.

Columns and labels:
[1] = tested on: panel of approximately 60 different human tumor cell lines; experiment: National Cancer Institute drug screen, mean-graph parameters; assay type: cell-based; details: mean over cell line panel, two days exposure; for GI50: Homo sapiens, 48 h, read-out: Tumor cell Mean log GI50 (converted)
Experimental: Compounds of the present invention also have been subjected to the drug screening procedure employed by the National Cancer Institute for the screening of drugs having possible anticancer utility. The screening procedure uses a diverse, disease-oriented panel consisting of approximately 60 different human tumor cell lines organized into disease-specific subpanels. The compounds of the present invention were tested over a range of concentrations for cytotoxic or growth-inhibitory effects against cell lines comprising the panel. The eight subpanels represented diverse histologies (leukemias, melanomas, and tumors of the lung, colon, kidney, breast, ovary, and brain).
Compounds of the present invention were tested over a period of two days. During this period the cells were continuously exposed to various concentrations of the compounds tested. The tests produced individual dose-responses, one for each cell line (i.e. one for each example), and the data were represented in dose-response curves. The data provided by these dose response curves were summarized using a mean-graph format.
To produce data for the mean-graph format, a compound concentration that produced a target level response was calculated for each cell line. Three different response parameters were evaluated. The first response parameter was the growth inhibition (“GI50”). GI50 is the concentration of compounds made according to the present invention that produced an apparent 50% decrease in the number of tumor cells relative to the appropriate control (not exposed to the compounds of the present invention) at the end of the incubation period.
The second response parameter was the total growth inhibition (“TGI”). TGI is the concentration at which the number of tumor cells remaining at the end of the incubation period substantially equal the number of tumor cells existing at the start of the incubation period.
The third response parameter was the lethal concentration (“LC50”) LC50 is the concentration of compounds made according to the present invention that caused an apparent 50 percent reduction in the number of tumor cells […] at the start of the incubation period.
In a typical GI50 mean graph, the relative position of the vertical reference line along the horizontal concentration axis was obtained by averaging the negative log10GI50 values for all the cell lines tested against the compound. Horizontal bars were then plotted for the individual negative log10GI50 values of each cell line relative to the vertical reference line. The GI50 graph thus provided a characteristic fingerprint for the compound, displaying the individual cell lines that are proportionately more sensitive than average (bars extending to the right of the reference line) or proportionately less sensitive than average (bars extending to the left of the reference line). The length of a bar was proportional to the difference between the log10GI50 value obtained with the particular cell line and the mean (represented by the vertical reference line).
Similar mean graphs were prepared for the TGI and LC50 response parameters.

K562 cells = experiment: K562 cell culture and growth assay, 6 day MTT; assay type: cell-based, human; details: K562, 6 days
Experimental: This example describes the procedure used for cell culture and growth assays. Human leukemia, Philadelphia-chromosome-positive CML cell line K562 was obtained from ATCC (Rockville, Md.). Cells were cultured in RPMI medium containing 10% fetal calf serum, 2 mM glutamine, 100 units/ml of penicillin and 100 μg/ml streptomycin Cells (2×10^3 cells/well) were incubated with increasing concentrations of compounds of the present invention dissolved in DMSO in a final volume of 200 μl in 96-well plates. Control cells were incubated with medium containing identical concentrations of the DMSO solvent. Growth of K562 cells was quantitated after 6 days by ability of living cells to reduce the yellow dye 3-(4,5-dimethylthiazolyl)-2,5-diphenyltetrazolium bromide (MTT) to a blue formazan product. Further information concerning this procedure is provided by Mossman T., “Rapid Colorimetric Assay for Cellular Growth and Survival—Application to Proliferation and Cytotoxicity Assays,” J. Immunol. Methods 1983, 65:55-63, which is incorporated herein by reference.

p210^bcr-abl = target: T1, p210^bcr-abl (Homo sapiens, UniProt P00519); experiment: Inhibition of in vitro auto-phosphorylation of p210^bcr-abl, immune-complex kinase assay; assay type: biochemical
T1 construct: immune complexes containing ^32P-labeled p210^bcr-abl were collected on protein Sepharose beads; BCR (N-terminal part of the breakpoint cluster region protein, natural fusion partner); endogenous in cells; host or cells: K562 cells (lysate, immunoprecipitated on Protein A-Sepharose); the other entry of the earlier key: BCR (P11274, Breakpoint cluster region protein)
Experimental: Inhibition of in vitro auto-phosphorylation of p210^bcr-abl in immune-complex kinase assays were conducted as follows. K562 cell line cells were washed twice in […]. The washed cells were lysed in PLC lysis buffer 150 mM HEPES (pH 7.5), 150 mM NaCl, 10% (v/v) glycerol, 1% (v/v) Triton X-100, 1.5 mM MgCl2, 1 mM EGTA. 10 μg/ml leupeptin, 10 μg/ml aprotinin, 1 mM sodium orthovanadate. 10 mM sodium pyrophosphate, 100 mM sodium fluoride and 1 mM phenylmethyl sulfonyl fluoride| Cell lysates were centrifuged at 100,000 g for 15 minutes and the supernatant collected. Protein concentrations of the clarified supernatants were determined by the Bradford Protein Assay, and the same quantity of protein was immunoprecipitated from control (vehicle-treated) and drug-treated cells. Cell lysates were incubated and gently rocked at 4° C. for 4 hours overnight with antibodies. Immune complexes were collected by incubation with Protein A-Sepharose beads (Pharmacia, Piscataway N.J.) and immune complexes (beads) were washed three times with HNTG buffer [20 mM HEPES (pH 7.5), 10% glycerol, 0.1% Triton X-100, 150 mM NaCl and 1 mM sodium orthovanadate] to remove unbound material. Bound proteins were boiled for 5 minutes in 2×SDS sample buffer (63 mM Tris-HCl, ph 6.8; 10% glycerol; 2% SDS; 0.0025% bromophenol blue: and […] 2 mercaptoethanol) prior to SDS-PAGE. Proteins were resolved on 4-20% gradient mini gels from Novex Experimental Technology (San Diego, Calif.).
After SDS-PAGE, proteins were electrophoretically transferred onto Immobilon polyvinylidene difluoride (PVDF) membranes (Millipore, Bedford, Mass.) at 250 mA for 4 hours at 4° C. using 2× Tris glycine transfer buffer (50 mM Tris, glycine), 20% methanol and 0.1% SDS. Residual binding sites on the membrane were blocked by incubation in TTS (20 mM Tris pH 7.4, 0.9% NaCl and 0.05% Tween 20) containing 3% BSA overnight at 4° C. or for 4 hours at room temperature. Blots were incubated for 1-1.5 hours with TTS containing 0.3% BSA with 1 μg/ml of mouse anti-P-Tyr, 2 μg/ml of mouse anti-Grb2 or 1 μg/ml of rabbit anti-She antibody. Blots were washed three times for 6 minutes each with TTS containing 0.3% BSA and probed with a 1:1000 dilution of rabbit anti-mouse antibody or directly with [^125I]Protein A (Amersham, Arlington Heights, Ill.) in blocking solutions. Proteins were visualized by autoradiography (exposed for 1-2 days at −70° C.).
The p210^bcr-abl, protein immunoprecipitates were washed twice with HTNG buffer Immunoprecipitates were washed once with 50 mM Tris (pH 7.0) and distributed to each reaction in 20 μl of 20 mM PIPES [piperazine-N,N′-bis(ethanesulfonic acid)] (pH 7.0)−20 mM MnCl2. Then, 10 μl of compounds made according to the present invention at desired concentrations from working stock solution prepared in 20 mM PIPEs (pH 7.0)−20 mM MnCl2 were added to each reaction tube. Reactions were initiated with the addition of 10 μl of [γ-^33P]ATP (10 μCi per sample, 3000 Ci/mmol; Amersham), incubated for 20 minutes at 30° C., stopped by addition of 10 μl of 5×SDS sample buffer, heated at 100° C. for 5 minutes, and analyzed on 4-20% SDS-PAGE and by autoradiography.
To assess the effect of drugs added in vitro on the state of p210^bcr-abl in the immune complexes, K562 cells were labeled with ^32P, lysed in PLC buffer and immune complexes containing ^32P-labeled p210^bcr-abl were collected on protein Sepharose beads and beads were washed four times with HNTG buffer. Immune complexes were divided into several tubes in 30 μl of PLC buffer in the presence of compounds made as described herein.

[2] = Homo sapiens, 144 h, Table 9, mean ± S.E., 4 or more experiments, read-out: IC50 (μM) 6dMTT
[3] = Table 9, immune complex kinase assay, mean ± S.E., 3 experiments, read-out: Enzyme Assays IC50 (μM) p210bcl-abl in vitro phosphorylation
[4] = Table 8, immune complex kinase assay, mean+S.E., 3 experiments, read-out: Enzyme Assays IC50 (μM) p210bcl-abl in vitro phosphorylation
[5] = Homo sapiens, 144 h, Table 8, mean+S.E., 4 or more experiments, read-out: IC50 (μM) 6 dMTT
[6] = Homo sapiens, 144 h, Table 4, read-out: IC50 (6d MTT)
[7] = Table 4, read-out: IC50 (p210^ber-abi in vitro phosphorylation)

T1 sequence (P00519 with tags, fused parts or gaps): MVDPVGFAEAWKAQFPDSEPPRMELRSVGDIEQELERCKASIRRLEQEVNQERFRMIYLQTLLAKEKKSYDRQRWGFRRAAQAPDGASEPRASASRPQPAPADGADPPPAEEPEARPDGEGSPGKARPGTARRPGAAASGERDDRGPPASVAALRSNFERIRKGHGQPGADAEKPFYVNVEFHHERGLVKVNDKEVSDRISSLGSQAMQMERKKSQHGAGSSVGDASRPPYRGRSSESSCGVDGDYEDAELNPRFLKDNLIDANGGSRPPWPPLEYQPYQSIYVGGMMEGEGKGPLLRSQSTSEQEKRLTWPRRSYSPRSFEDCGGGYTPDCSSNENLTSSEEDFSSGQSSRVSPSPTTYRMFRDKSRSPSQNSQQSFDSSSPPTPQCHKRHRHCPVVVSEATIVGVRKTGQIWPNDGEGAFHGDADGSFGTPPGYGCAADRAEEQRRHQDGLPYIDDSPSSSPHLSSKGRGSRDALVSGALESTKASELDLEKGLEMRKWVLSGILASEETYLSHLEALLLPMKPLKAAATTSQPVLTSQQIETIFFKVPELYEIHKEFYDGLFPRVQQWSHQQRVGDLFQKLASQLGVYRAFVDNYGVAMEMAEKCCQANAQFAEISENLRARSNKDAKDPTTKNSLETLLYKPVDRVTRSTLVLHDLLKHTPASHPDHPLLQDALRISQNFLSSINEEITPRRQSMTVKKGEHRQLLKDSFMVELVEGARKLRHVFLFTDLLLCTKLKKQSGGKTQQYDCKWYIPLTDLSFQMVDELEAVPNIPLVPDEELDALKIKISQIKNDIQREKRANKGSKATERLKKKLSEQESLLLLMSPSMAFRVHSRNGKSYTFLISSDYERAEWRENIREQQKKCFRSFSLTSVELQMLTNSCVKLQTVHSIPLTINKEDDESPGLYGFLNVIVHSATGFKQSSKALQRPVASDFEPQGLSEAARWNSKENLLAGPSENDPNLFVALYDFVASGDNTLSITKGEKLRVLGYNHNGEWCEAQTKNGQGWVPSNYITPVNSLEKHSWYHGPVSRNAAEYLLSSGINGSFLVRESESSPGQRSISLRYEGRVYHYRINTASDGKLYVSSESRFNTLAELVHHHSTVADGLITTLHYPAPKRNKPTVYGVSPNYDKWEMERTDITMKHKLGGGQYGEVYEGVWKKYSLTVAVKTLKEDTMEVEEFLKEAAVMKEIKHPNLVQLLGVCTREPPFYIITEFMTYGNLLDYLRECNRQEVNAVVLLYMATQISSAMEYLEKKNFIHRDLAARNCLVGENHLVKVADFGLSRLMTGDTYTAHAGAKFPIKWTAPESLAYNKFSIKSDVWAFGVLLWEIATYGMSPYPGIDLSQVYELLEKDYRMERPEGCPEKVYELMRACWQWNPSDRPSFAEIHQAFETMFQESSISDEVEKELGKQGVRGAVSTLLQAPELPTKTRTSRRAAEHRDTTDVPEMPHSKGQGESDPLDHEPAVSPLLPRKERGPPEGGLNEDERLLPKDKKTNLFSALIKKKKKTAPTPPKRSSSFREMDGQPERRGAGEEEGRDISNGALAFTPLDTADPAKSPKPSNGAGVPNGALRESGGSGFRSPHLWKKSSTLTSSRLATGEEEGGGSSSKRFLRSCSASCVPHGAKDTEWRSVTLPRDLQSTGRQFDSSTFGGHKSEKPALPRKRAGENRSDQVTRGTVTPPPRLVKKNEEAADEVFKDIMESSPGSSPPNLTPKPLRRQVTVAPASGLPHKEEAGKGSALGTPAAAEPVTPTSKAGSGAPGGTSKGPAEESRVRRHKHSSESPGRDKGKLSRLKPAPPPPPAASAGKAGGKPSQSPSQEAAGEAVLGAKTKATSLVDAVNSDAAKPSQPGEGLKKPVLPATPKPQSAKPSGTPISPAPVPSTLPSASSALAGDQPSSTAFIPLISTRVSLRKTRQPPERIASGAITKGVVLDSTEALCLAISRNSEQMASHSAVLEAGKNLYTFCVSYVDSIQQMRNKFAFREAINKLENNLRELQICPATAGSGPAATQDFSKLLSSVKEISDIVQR

Structure (SMILES) | Tumor Cell Mean log GI50 ([1]; Table 8) | Tumor Cell Mean log TGI ([1]; Table 8) | IC50 (p210^bcr-abl; [4]) | IC50 (K562 cells; [6]) | IC50 (p210^bcr-abl; [7]) | other results
O=C1C=CC(=O)C(CNc2ccc(C(=O)OCc3ccccc3)cc2)=C1 [COOCH2—C6H6 / H / 2,5-quinoyl] | – | – | – | – | – | GI50 ([1]; Table 9): 5.01 µM; Tumor Cell Mean log TGI ([1]; Table 9): −4.78; IC50 (K562 cells; [2]): 22.8 ± 18 µM; IC50 (p210^bcr-abl; [3]): 8.75 ± 1.25 µM
COC(=O)c1ccc(NCC2=CC(=O)C=CC2=O)cc1 [COOCH3 / H / 2,5-quinoyl] | – | – | – | – | – | GI50 ([1]; Table 9): 2.51 µM; Tumor Cell Mean log TGI ([1]; Table 9): −4.8; IC50 (K562 cells; [2]): 15.1 ± 1.28 µM; IC50 (p210^bcr-abl; [3]): 15.9 ± 2.91 µM
COC(=O)c1ccc(NCc2cc(O)ccc2O)cc1 [COOCH3 / H / H, reference compound] | −4.95 | −4.52 | 2.9 µM | – | – | IC50 (K562 cells; Table 8, mean+S.E., 4 or more experiments, read-out: IC50 (μM) 6 dMTT): 16.6 µM
COC(=O)c1ccc(NCc2cc(O)ccc2O)cc1O [COOCH3 / OH / H] | −5.23 | −4.70 | 6.44 µM | – | – | IC50 (K562 cells; [5]): 17.7 µM
O=C(O)c1ccc(NCc2cc(O)ccc2O)cc1 [COOH / H / H] | −4.96 | −4.60 | 18.5 µM | – | – | IC50 (K562 cells; [5]): 41.9 µM
CC(C)OC(=O)c1cc(NCc2c(O)ccc(O)c2Br)ccc1Cl [Compound 13] | – | – | – | 18 µM | 10 µM | –
CC(C)(C)OC(=O)c1ccc(NCc2cc(O)ccc2O)cc1 [Compound 14] | – | – | – | 7 µM | 10 µM | –
CC(C)OC(=O)c1ccc(CCC2=CC(=O)C=CC2=O)cc1 [Compound 30] | – | – | – | 26 µM | 25 µM | –
CC(C)OC(=O)c1ccc(CCC2=CC(=O)C(Br)=CC2=O)cc1 [Compound 32] | – | – | – | 10 µM | – | IC50 (p210^ber-abi in vitro phosphorylation) (p210^bcr-abl; Table 4): No Effect
COC(=O)c1ccc(/C=C/C2=CC(=O)C=CC2=O)cc1 [Compound 33] | – | – | – | 7.5 µM | – | IC50 (p210^ber-abi in vitro phosphorylation) (p210^bcr-abl; Table 4): No Effect
